Some test systems named below: OVCAR-5 ovarian; HCT-15 colon; UO-31 renal; HOP-92 NSCLC; HL-60(TB) leukemia; SW-620 colon; NCI-H460 lung; NCI-H522 lung; HCT-116 colon; SF-539 CNS.
Holding throughout (test): inhibition of tumour cell growth, NCI panel, 48 h

Each structure is given as a SMILES string. Where “and” joins values, the source holds several entries; their conditions need not be identical. Identical values can stand only once.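 Step 1: Grow cells in 96-well plates. Step 2: Expose to compound for 48 hours at 5 concentrations. Step 3: Interpolate endpoints linearly; if unreached, use highest concentration. Abbreviation: GI50, concentration required for 50% inhibition of growth. TGI is the concentration that stops growth completely.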

For `CCCCCCCCCCCC(c1ccccc1)[N+](C)(C)C` (configuration not stated), the GI50 is 0.998 µM with OVCAR-5 ovarian; 14.1 µM with HCT-15 colon; 10.7 µM in the test on UO-31 renal; 1.06 µM in the test on HOP-92 NSCLC; 0.291 µM in the test with HL-60(TB) leukemia; 1.5 µM in the test on SW-620 colon. Besides, the GI50 with NCI-H460 lung was 1280 nM; in the test on NCI-H522 lung, 0.294 µM. The TGI with OVCAR-5 ovarian came out at 4.97 µM; in the test with HCT-15 colon it was 37 µM; with UO-31 renal, 26.9 µM; in the test with HOP-92 NSCLC, 2.86 µM; with HL-60(TB) leukemia, 1.47 µM; in the test on SW-620 colon, 3.86 µM. Further, the TGI in the test on NCI-H460 lung worked out at 3.2 µM; in the test on NCI-H522 lung it was 1970 nM.
Take `O=C(O)CN(CCN(CC(=O)O)CC(=O)O)CCN(CC(=O)O)CC(=O)O`: the GI50 in the test with OVCAR-5 ovarian is 4.01 µM; in the test on HCT-15 colon, 3.67 µM; in the test on HCT-116 colon, 3.42 µM; in the test with SF-539 CNS it was 2860 nM; in the test on HOP-92 NSCLC, 11.5 µM; in the test on HL-60(TB) leukemia it was 2.12 µM. The GI50 is 3.85 µM in the test on SW-620 colon and 2490 nM in the test with NCI-H460 lung. Further, the TGI in the test on OVCAR-5 ovarian came to 20 µM; with HCT-15 colon, 20.9 µM; in the test with HCT-116 colon it was 12.7 µM; with SF-539 CNS it was 7.98 µM; in the test on HOP-92 NSCLC, 79 µM; in the test with HL-60(TB) leukemia, 5.01 µM. Further, the TGI in the test with SW-620 colon was 19 µM; with NCI-H460 lung, 7.09 µM.
In the case of `O=c1cc(-c2cccc(Cl)c2)[nH]c2cc3c(cc12)OCO3`, the TGI was above 100 µM in the test on OVCAR-5 ovarian; 2.81 µM in the test with HCT-15 colon; 1.08 µM and 1.56 µM with SF-539 CNS; 75 µM and > 100 µM in the test with UO-31 renal; 21.8 µM with HOP-92 NSCLC; 7.5 µM and 1.39 µM in the test with HL-60(TB) leukemia. For the same molecule, the TGI in the test with SW-620 colon was above 100 µM; with NCI-H460 lung, above 100 µM; with NCI-H522 lung it was 2800 nM. In addition, the figures for the GI50 in the test with SF-539 CNS, with UO-31 renal and with HL-60(TB) leukemia were 288 nM, 0.743 µM and 0.263 µM, respectively.
Take `CCCCCOC(=O)c1c(C)[nH]c(/C=C2\N=C(c3ccc[nH]3)C=C2OC)c1C`: the GI50 with OVCAR-5 ovarian was 0.0191 µM; with HCT-15 colon it was 0.0264 µM; with HCT-116 colon, 0.0193 µM; in the test with SF-539 CNS, 30.6 nM; in the test with UO-31 renal it was 0.021 µM; with HOP-92 NSCLC it was 0.0214 µM. The GI50 with HL-60(TB) leukemia is 0.0263 µM; in the test on SW-620 colon, 0.0308 µM; in the test with NCI-H460 lung it was 30.9 nM; in the test on NCI-H522 lung, 0.0392 µM. Further, the TGI came out at 1.21 µM in the test on OVCAR-5 ovarian; 1.4 µM in the test on HCT-15 colon; 0.349 µM in the test on HCT-116 colon; 0.725 µM in the test with SF-539 CNS; 0.0689 µM in the test on UO-31 renal; 0.116 µM in the test with HOP-92 NSCLC. The TGI in the test with HL-60(TB) leukemia turned out to be 0.281 µM; in the test with SW-620 colon, 1.28 µM; with NCI-H460 lung it was 1.47 µM; with NCI-H522 lung, 1270 nM.
In the case of `COc1ccc2c(c1[N+](=O)[O-])CC[C@@H]1[C@@H]2CC[C@]2(C)C(=O)CC[C@@H]12`, the GI50 is above 1000 µM with OVCAR-5 ovarian; above 1000 µM in the test with HCT-15 colon; above 1000 µM in the test on HCT-116 colon; 300000 nM in the test on SF-539 CNS; above 824 µM in the test with UO-31 renal; 289 µM in the test on HOP-92 NSCLC. Moreover, the GI50 is above 1000 µM in the test with HL-60(TB) leukemia, above 1000 µM in the test on SW-620 colon, above 756000 nM with NCI-H460 lung and 590 µM in the test with NCI-H522 lung. The TGI with OVCAR-5 ovarian was above 1000 µM; in the test on HCT-15 colon it was above 1000 µM; in the test on SF-539 CNS, above 890 µM; in the test on UO-31 renal, above 1000 µM; with SW-620 colon, above 1000 µM; with NCI-H522 lung it was above 957000 nM.
On to `CCN(CC)CCN1C(=O)C2C3C(C)=CC(OC(C)=O)(CC3C)C2C1=O` (configuration not stated), for which the GI50 in the test on OVCAR-5 ovarian is above 100 µM; in the test with HCT-15 colon, above 100 µM; in the test on HCT-116 colon, above 100 µM; in the test with SF-539 CNS, above 100000 nM; with UO-31 renal, above 100 µM; in the test with HOP-92 NSCLC it was above 100 µM. Further, the GI50 in the test on HL-60(TB) leukemia, in the test on SW-620 colon and with NCI-H522 lung was above 100 µM throughout. In addition, the TGI in the test with OVCAR-5 ovarian, in the test with HCT-15 colon, in the test on HCT-116 colon, with SF-539 CNS, in the test on UO-31 renal and with HOP-92 NSCLC was above 100 µM each time. Also, the TGI in the test on HL-60(TB) leukemia was above 100 µM; in the test on SW-620 colon it was above 100 µM; in the test with NCI-H522 lung it was above 100000 nM.
Consider `CC1COS(=O)N1c1ccccc1` (configuration not stated), for which the TGI with OVCAR-5 ovarian, with HCT-15 colon, with UO-31 renal, with HOP-92 NSCLC, in the test on HL-60(TB) leukemia and in the test with SW-620 colon was above 100 µM each time. Also, the TGI in the test on NCI-H460 lung was above 100 µM; with NCI-H522 lung, above 100000 nM.
Turning to `CSC(=Nc1ccc([N+](=O)[O-])cc1C#N)NC(=O)c1ccccc1`, the TGI with OVCAR-5 ovarian, with HCT-15 colon, in the test on HCT-116 colon, in the test with SF-539 CNS, with HOP-92 NSCLC and in the test with HL-60(TB) leukemia was above 100 µM throughout. The TGI in the test on SW-620 colon and in the test on NCI-H460 lung was above 100 µM throughout.
As for `CCOC(=O)c1sc2nc(=S)[nH]c(NC(N)=S)c2c1C`, the GI50 in the test on OVCAR-5 ovarian is 26.1 µM; with HCT-15 colon, 16.7 µM; in the test with SF-539 CNS, 11900 nM; with UO-31 renal, 20.3 µM; with HOP-92 NSCLC, 4.58 µM; in the test with HL-60(TB) leukemia, 51.2 µM. The GI50 with SW-620 colon is 23.3 µM; with NCI-H460 lung it was 23200 nM; in the test with NCI-H522 lung it was 20.7 µM. Also, the TGI with OVCAR-5 ovarian was 75.7 µM; with HCT-15 colon it was 39.2 µM; in the test with SF-539 CNS it was 25.4 µM; in the test on UO-31 renal, 61.7 µM; with HOP-92 NSCLC, 37.5 µM; with HL-60(TB) leukemia, above 100 µM. Besides, the figures for the TGI in the test on SW-620 colon, in the test with NCI-H460 lung and in the test on NCI-H522 lung were 55.1 µM, 61 µM and 55000 nM, respectively.

Source of the values: PubChem BioAssay (NCI).
